According to patent US5171835A, “LHRH antagonists” (The Administrators of the Tulane Educational Fund, priority 1991, dated 1992):
Like-named read-outs stand apart in the source and are kept apart here. Square brackets hold non-standard residues; d marks the D form. dPhe(4-Cl) = N[C@H](Cc1ccc(Cl)cc1)C(=O)O; d2Nal = N[C@H](Cc1ccc2ccccc2c1)C(=O)O; dCit = NC(=O)NCCC[C@@H](N)C(=O)O; d3Pal = N[C@H](Cc1cccnc1)C(=O)O

Columns and labels:
[1] = system: LH and FSH levels; assay: In vivo effect on LH and FSH levels in castrated male rats; parameters: species or system rat; conditions: s.c.; for inhibition of LH levels forty-eight hours after injection: dose of 5 μg; for duration of significant decrease in the LH levels: p<0.01
Protocol: (d) In vivo effect on LH and FSH levels was measured as described by L. Bokser et al. (Proc. Natl. Acad. Sci. US, accepted for publication.) Castrated male rats weighing 350-410 grams anaesthetized with urethane were injected subcutaneously with Peptide 7 and 8 in doses of 1.25 μg and 5.0 μg. Blood samples were taken from the jugular vein before injection and 1, 2, 3, 4, 6, 24 and 48 hours after the administration of peptides. Control animals were injected only with saline. LH and FSH levels were determined by specific RIAs.

[2] = system: Dunning R3327 prostate cancer; assay: In vivo antitumor effect, Dunning R3327 prostate cancer in rats; parameters: species or system rat; conditions: for Size of tumor, treated group: 25 μg/day, ± SD
Protocol: Inhibition of growth of cancerous tumors in rats with compounds of Formula I was tested as described by Szende et al. (J. Natl. Cancer Inst., 82, 513-517, 1990; Szende et al., Cancer Research), 50, 3716-3721, 1990) by A. V. Schally and T. Redding (Proc. Natl. Acad. Sci. US, 84, 7279-7282, 1987), and by E. Korkut et al. (Proc. Natl. Acad. Sci. US, accepted for publication). Peptide 8 was dissolved in 45% aqueous propylene-glycol and was administered at a dose of 25 μg/day from an ALZET minipump to male rats bearing the androgen-dependent well-differentiated R3327 Dunning rat prostate adenocarcinoma. Tumors were measured weekly with microcalipers and tumor volumes were calculated. Duration of the treatment was 8 weeks, changing the minipumps at the end of the 4th week.

[3] = system: perfused rat pituitary cell system (LH response to LH-RH); assay: LH-RH inhibiting activity in superfused rat pituitary cell system; type: cell-based
Protocol: Immediately after that, a mixture containing the same concentration of peptide and 3 nM LHRH is administered for 3 min. This was followed by four consecutive infusions of 3 nM LHRH for 3 min (1 ml perfusate) at 30 min intervals (30, 60, 90, 120 min). LH content of the 1 ml fractions collected is determined by radioimmunoassay (RIA).

[4] = system: membrane receptors of human breast cancer cells; assay: Receptor binding, human breast cancer cell membranes (125I-[D-Trp6]LHRH as labelled ligand); conditions: 125I-[D-Trp]6 LHRH labelled ligand; for Affinity Constant Ka 1: NB = no binding
Protocol: Affinity of peptides to rat pituitary and human breast cancer cell membranes is determined by using labelled LHRH and [D-Trp^6 ]LHRH. The assay is carried out similarly to that described by T. Kadar et al., Proc. Natl. Acad. Sci. USA, 85, 890-894 (1988) and M. Fekete et al., Endocrinology, 124, 946-955 (1989).

[5] = system: ovulation in 4-day-cycling rats; assay: In vivo antiovulatory activity in 4-day-cycling rats; parameters: species or system rat
Protocol: (b) In vivo antiovulatory activity of peptides is determined in 4-day-cycling rats as described [A. Corbin and C. W. Beattie, Endocr. Res. Commun., 2, 1-23 (1975)].

[6] = cited from earlier work
[7] = system: LHRH; conditions: prior art; cited from earlier work
[8] = rats bearing Dunning R3327H prostate cancer
[9] = antagonist to LH-RH ratio 1:1, 0 min
[10] = antagonist to LH-RH ratio 1:1, 30 min
[11] = antagonist to LH-RH ratio 1:1, 60 min
[12] = antagonist to LH-RH ratio 1:1, 90 min
[13] = antagonist to LH-RH ratio 3:1, 0 min
[14] = antagonist to LH-RH ratio 3:1, 30 min
[15] = antagonist to LH-RH ratio 3:1, 60 min
[16] = antagonist to LH-RH ratio 3:1, 90 min

| Substance | inhibition of LH levels forty-eight hours after injection ([1]; 48 hours, p<0.05) | duration of significant decrease in the LH levels [1] | % inhibition of LH response [3, 9] [%] | % inhibition of LH response [3, 10] [%] | % inhibition of LH response [3, 11] [%] | % inhibition of LH response [3, 12] [%] | % inhibition of LH response [3, 13] [%] | % inhibition of LH response [3, 14] [%] | % inhibition of LH response [3, 15] [%] | % inhibition of LH response [3, 16] [%] | Affinity Constant Ka 2 [4] [µM⁻¹] | Affinity Constant Ka 1 [4] [nM⁻¹] | LHRH antagonist / ovulation inhibition potency [7] | other results |
| --- | --- | --- | --- | --- | --- | --- | --- | --- | --- | --- | --- | --- | --- | --- |
| Ac-D-Nal(2)-D-Phe(4Cl)-D-Pal(3)-Ser-Tyr-D-Lys[A2 pr(Ac)2 ]-Leu-Arg-Pro-D-Ala-NH2 [Peptide 8] | significant inhibition | more than 24 hours | 64 | 39 | 27 | 22 | 99 | 66 | 47 | 37 | 6.16 | 1.57 |  | activity on LH levels forty-eight hours after injection ([1]; dose of 1.25 μg, 48 hours, p<0.05): active; Size of tumor, treated group ([2]; week 0): 4001 ± 1617 mm^3; Size of tumor, treated group ([2]; week 1): 5459 ± 1863 mm^3; Size of tumor, treated group ([2]; week 2): 5892 ± 1938 mm^3; Size of tumor, treated group ([2]; week 3): 6357 ± 2327 mm^3; Size of tumor, treated group ([2]; week 4, p<0.05): 6237 ± 2974 mm^3; Size of tumor, treated group ([2]; week 5, p<0.05): 7447 ± 3481 mm^3; Size of tumor, treated group ([2]; week 6, p<0.05): 8038 ± 4374 mm^3; Size of tumor, treated group ([2]; week 7, p<0.01): 8129 ± 3525 mm^3; Tumor doubling time ([2]; Dunning R3327H prostate cancer, rats, control group 12 days): 42 days; body weight during the treatment [2, 8]: did not change; weight of testis, seminal vesicles and ventral prostate [2, 8]: greatly reduced |
| Ac-D-Nal(2)-D-Phe(4Cl)-D-Pal(3)-Ser-Tyr-D-Lys[A2 pr(Car)2 ]-Leu-Arg-Pro-D-Ala-NH2 [Peptide 7] | significant inhibition | more than 24 hours | 57 | 51 | 45 | 41 | 96 | 78 | 70 | 58 | 5.72 | 6.27 |  |  |
| Ac-D-Nal(2)-D-Phe(4Cl)-D-Pal(3)-Ser-Tyr-D-Lys[DL-A2 bu(Ac)2 ]-Leu-Arg-Pro-D-Ala-NH2 [Peptide 14] |  |  |  |  |  |  | 80 | 63 | 51 | 53 | 0.28 | 4.83 |  | % Blockade of Ovulation ([5]; dose 1.5 μg): 20% |
| Ac-D-Nal(2)-D-Phe(4Cl)-D-Pal(3)-Ser-Tyr-D-Lys[DL-A2 bu(PRL)2 ]-Leu-Arg-Pro-D-Ala-NH2 [Peptide 18] |  |  |  |  |  |  | 90 | 71 | 58 | 54 | 6.17 | 21.18 |  | % Blockade of Ovulation ([5]; dose 0.75 μg): 75% |
| Ac-[d2Nal][dPhe(4-Cl)][d3Pal]SY[dCit]LRP[dA]-NH2 |  |  |  |  |  |  |  |  |  |  |  |  | high inhibitory effect | side effects ([6]; prior art): no edematogenic and anaphylactoid side effects |
| [Ac-D-Nal(2)^1,D-Phe(4Cl)^2,D-Trp^3,D-hArg(Et)2^6,D-Ala^10 ] [Detirelix] |  |  |  |  |  |  |  |  |  |  |  |  | powerful antagonist | side effects ([6]; in vivo): hypotensive and bradycardic side effect |
